The values that follow are results of earlier work, collected in US20060019313A1, “Method for detecting molecular surface interactions” (Biacore AB, priority 2004, published 2006).

The series concerns Anti-myoglobin IgG. As to conditions: stated as known; IgG used as reference.

On to `CCC(Cc1c(I)cc(I)c(O)c1I)C(=O)O` (stereo not drawn) [iophenoxic acid, α-ethyl-3-hydroxy-2,4,6-triiodohydro-cinnamic acid], for which the “binding to IgG” value is “not to IgG”.
